The target in one assay is D(1A) dopamine receptor (Homo sapiens, UniProt P21728). Kind of assay: Selectivity interaction (GPCR panel (PDSP screen)) EUB0000335a DRD1.
Assay [1] concerns the target Cyclin-dependent kinase 3 (Homo sapiens) (UniProt Q00526). As to the kind of experiment: Selectivity interaction (KinomeScan (DiscoverX)) EUB0000335a CDK3. To be noted: at 1 µM.
The target in assay [2] is Mitotic checkpoint serine/threonine-protein kinase BUB1 (Homo sapiens) (UniProt O43683). Kind of assay: Selectivity interaction (KinomeScan (DiscoverX)) EUB0000335a BUB1. To be noted: at 1 µM.
Assay [3] has as its target Serine/threonine-protein kinase WNK2 (Homo sapiens) (UniProt Q9Y3S1). Kind of assay: Selectivity interaction (KinomeScan (DiscoverX)) EUB0000335a WNK2. The following applies: at 1 µM.
In assay [4] the target is T1, Mitogen-activated protein kinase kinase kinase 13 (Homo sapiens) (UniProt O43283).
T1 sequence (whole entry): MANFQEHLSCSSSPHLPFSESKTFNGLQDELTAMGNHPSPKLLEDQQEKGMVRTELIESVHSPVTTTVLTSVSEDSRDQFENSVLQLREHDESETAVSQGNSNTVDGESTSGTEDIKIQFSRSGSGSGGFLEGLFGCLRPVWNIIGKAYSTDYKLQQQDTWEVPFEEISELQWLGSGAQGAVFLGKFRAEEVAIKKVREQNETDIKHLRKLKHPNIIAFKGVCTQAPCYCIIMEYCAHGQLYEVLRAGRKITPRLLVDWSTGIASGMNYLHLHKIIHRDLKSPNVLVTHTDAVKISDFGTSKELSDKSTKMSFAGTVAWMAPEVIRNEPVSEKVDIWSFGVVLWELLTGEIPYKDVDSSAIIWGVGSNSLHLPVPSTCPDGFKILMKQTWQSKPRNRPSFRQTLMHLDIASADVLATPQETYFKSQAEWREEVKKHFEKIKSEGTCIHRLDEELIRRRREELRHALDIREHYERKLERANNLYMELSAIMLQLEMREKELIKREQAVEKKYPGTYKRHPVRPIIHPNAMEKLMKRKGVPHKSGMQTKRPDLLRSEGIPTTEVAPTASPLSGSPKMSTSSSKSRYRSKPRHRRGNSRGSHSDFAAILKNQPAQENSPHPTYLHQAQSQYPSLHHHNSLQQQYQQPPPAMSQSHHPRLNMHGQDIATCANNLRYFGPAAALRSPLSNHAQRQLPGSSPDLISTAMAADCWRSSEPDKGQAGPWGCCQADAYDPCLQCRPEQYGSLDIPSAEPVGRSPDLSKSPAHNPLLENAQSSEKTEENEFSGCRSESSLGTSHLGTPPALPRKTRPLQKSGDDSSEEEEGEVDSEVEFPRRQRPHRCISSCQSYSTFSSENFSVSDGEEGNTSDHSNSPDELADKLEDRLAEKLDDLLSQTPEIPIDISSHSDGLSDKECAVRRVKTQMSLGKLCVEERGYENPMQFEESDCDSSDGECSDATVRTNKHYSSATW
As to the kind of experiment: Selectivity interaction (KinomeScan (DiscoverX)) EUB0000335a MAP3K13. The following applies: at 1 µM.

Assay [5] concerns the target Receptor-interacting serine/threonine-protein kinase 1 (Homo sapiens) (UniProt Q13546). As to the kind of experiment: Selectivity interaction (KinomeScan (DiscoverX)) EUB0000335a RIPK1. To be noted: at 1 µM.
The target in a further assay is D(2) dopamine receptor (Homo sapiens, UniProt P14416). Kind of assay: Selectivity interaction (GPCR panel (PDSP screen)) EUB0000725a DRD2. The following applies: at 10 µM.
D(2) dopamine receptor, sequence (P14416 whole entry): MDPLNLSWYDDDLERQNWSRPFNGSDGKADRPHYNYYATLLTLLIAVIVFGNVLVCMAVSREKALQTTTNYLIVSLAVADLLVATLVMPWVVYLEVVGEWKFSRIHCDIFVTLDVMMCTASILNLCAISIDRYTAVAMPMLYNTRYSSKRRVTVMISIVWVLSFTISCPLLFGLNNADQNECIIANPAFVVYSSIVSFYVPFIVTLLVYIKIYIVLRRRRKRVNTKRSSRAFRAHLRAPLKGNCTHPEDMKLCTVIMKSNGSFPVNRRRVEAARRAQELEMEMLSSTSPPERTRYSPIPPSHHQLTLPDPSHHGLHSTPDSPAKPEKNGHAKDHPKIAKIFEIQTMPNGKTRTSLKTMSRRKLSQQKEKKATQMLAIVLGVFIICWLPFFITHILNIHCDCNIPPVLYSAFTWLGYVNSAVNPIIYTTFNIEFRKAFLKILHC
Assay [6] concerns the target Macrophage metalloelastase (Homo sapiens, UniProt P39900). As to the kind of experiment: Selectivity interaction (MMPs panel (Panlabs panel, Bayer)) EUB0000725a MMP12.
Another assay concerns the target Collagenase 3 (Homo sapiens, UniProt P45452). As to the kind of experiment: Selectivity interaction (MMPs panel (Panlabs panel, Bayer)) EUB0000725a MMP13.
Another assay addresses Interstitial collagenase (Homo sapiens, UniProt P03956). Kind of assay: Selectivity interaction (MMPs panel (Panlabs panel, Bayer)) EUB0000725a MMP1.
Assay [7] deals with Matrix metalloproteinase-14 (Homo sapiens, UniProt P50281). Kind of assay: Selectivity interaction (MMPs panel (Panlabs panel, Bayer)) EUB0000725a MMP14.
Assay [8] deals with 72 kDa type IV collagenase (Homo sapiens, UniProt P08253). Kind of assay: Selectivity interaction (MMPs panel (Panlabs panel, Bayer)) EUB0000725a MMP2.
72 kDa type IV collagenase, sequence (P08253 whole entry): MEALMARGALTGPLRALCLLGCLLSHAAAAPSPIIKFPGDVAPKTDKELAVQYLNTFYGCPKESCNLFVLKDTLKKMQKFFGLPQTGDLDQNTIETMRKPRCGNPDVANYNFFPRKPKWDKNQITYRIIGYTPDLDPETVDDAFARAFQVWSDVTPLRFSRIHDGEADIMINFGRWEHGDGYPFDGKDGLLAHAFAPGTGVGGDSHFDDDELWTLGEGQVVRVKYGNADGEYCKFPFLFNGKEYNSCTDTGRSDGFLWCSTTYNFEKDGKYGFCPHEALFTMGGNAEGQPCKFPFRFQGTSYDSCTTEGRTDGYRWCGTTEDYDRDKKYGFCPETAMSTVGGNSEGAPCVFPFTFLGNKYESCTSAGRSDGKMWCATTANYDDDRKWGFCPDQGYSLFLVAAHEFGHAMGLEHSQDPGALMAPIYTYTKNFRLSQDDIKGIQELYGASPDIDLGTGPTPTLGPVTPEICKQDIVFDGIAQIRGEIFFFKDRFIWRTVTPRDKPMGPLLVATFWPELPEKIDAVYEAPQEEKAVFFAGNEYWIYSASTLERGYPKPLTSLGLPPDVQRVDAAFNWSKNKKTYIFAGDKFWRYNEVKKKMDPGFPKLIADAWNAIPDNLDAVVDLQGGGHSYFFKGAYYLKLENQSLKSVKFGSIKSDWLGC
A further assay concerns the target Stromelysin-1 (Homo sapiens, UniProt P08254). As to the kind of experiment: Selectivity interaction (MMPs panel (Panlabs panel, Bayer)) EUB0000725a MMP3.
The next assay has as its target T2, Matrilysin (Homo sapiens, UniProt P09237).
T2 sequence (P09237 whole entry): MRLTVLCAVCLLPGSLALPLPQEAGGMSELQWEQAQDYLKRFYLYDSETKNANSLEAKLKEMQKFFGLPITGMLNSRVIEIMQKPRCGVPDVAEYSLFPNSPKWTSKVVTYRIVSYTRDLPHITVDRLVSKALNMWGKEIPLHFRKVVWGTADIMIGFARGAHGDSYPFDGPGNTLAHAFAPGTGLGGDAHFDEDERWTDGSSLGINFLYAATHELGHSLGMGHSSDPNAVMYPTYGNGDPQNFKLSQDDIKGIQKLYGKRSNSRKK
Kind of assay: Selectivity interaction (MMPs panel (Panlabs panel, Bayer)) EUB0000725a MMP7.

For the next assay, the target named is Neutrophil collagenase (Homo sapiens, UniProt P22894). As to the kind of experiment: Selectivity interaction (MMPs panel (Panlabs panel, Bayer)) EUB0000725a MMP8.
Neutrophil collagenase, sequence (P22894 whole entry): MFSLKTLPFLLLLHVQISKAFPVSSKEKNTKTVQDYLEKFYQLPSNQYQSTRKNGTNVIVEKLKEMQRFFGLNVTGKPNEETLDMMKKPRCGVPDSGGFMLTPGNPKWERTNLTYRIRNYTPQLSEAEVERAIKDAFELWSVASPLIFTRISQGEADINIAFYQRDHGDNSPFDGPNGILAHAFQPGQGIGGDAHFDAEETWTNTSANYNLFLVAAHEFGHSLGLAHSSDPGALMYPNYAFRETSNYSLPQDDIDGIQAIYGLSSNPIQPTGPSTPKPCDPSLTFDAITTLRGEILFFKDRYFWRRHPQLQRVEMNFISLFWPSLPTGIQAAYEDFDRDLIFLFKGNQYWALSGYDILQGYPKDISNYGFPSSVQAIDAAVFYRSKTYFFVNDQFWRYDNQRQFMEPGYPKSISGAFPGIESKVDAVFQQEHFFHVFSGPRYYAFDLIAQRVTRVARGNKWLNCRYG
In assay [9] the target is Matrix metalloproteinase-9 (Homo sapiens, UniProt P14780). As to the kind of experiment: Selectivity interaction (MMPs panel (Panlabs panel, Bayer)) EUB0000725a MMP9.
Matrix metalloproteinase-9, sequence (P14780 whole entry): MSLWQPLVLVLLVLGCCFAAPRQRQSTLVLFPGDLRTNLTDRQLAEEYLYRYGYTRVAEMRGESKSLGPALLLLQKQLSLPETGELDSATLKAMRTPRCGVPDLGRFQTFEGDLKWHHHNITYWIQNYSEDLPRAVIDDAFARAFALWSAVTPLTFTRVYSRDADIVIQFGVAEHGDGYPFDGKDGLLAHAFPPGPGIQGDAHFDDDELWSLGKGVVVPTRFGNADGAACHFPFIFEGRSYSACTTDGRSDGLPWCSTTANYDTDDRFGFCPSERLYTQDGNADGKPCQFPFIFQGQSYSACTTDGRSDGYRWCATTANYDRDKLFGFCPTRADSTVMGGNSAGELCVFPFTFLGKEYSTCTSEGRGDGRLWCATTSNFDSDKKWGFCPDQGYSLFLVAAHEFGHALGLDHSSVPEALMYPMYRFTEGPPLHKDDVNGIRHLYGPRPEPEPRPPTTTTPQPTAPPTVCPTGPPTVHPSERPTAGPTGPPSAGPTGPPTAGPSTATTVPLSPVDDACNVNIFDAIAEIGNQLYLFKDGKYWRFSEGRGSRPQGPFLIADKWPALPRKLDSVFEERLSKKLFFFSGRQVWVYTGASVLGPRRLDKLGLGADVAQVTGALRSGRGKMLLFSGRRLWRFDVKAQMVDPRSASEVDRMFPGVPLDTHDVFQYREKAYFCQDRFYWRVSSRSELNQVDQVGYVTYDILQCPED
Assay [10] concerns the target Uncharacterized serine/threonine-protein kinase SBK3 (Homo sapiens) (UniProt P0C264). Kind of assay: Selectivity interaction (KinomeScan (DiscoverX)) EUB0000725a SBK3. The following applies: at 10 µM.
For assay [11], the target named is Phosphatidylinositol 4,5-bisphosphate 3-kinase catalytic subunit alpha isoform (Homo sapiens, UniProt P42336). As to the kind of experiment: Selectivity interaction (KinomeScan (DiscoverX)) EUB0000725a PIK3CA. The following applies: at 10 µM.
Phosphatidylinositol 4,5-bisphosphate 3-kinase catalytic subunit alpha isoform, sequence (P42336 whole entry, canonical isoform): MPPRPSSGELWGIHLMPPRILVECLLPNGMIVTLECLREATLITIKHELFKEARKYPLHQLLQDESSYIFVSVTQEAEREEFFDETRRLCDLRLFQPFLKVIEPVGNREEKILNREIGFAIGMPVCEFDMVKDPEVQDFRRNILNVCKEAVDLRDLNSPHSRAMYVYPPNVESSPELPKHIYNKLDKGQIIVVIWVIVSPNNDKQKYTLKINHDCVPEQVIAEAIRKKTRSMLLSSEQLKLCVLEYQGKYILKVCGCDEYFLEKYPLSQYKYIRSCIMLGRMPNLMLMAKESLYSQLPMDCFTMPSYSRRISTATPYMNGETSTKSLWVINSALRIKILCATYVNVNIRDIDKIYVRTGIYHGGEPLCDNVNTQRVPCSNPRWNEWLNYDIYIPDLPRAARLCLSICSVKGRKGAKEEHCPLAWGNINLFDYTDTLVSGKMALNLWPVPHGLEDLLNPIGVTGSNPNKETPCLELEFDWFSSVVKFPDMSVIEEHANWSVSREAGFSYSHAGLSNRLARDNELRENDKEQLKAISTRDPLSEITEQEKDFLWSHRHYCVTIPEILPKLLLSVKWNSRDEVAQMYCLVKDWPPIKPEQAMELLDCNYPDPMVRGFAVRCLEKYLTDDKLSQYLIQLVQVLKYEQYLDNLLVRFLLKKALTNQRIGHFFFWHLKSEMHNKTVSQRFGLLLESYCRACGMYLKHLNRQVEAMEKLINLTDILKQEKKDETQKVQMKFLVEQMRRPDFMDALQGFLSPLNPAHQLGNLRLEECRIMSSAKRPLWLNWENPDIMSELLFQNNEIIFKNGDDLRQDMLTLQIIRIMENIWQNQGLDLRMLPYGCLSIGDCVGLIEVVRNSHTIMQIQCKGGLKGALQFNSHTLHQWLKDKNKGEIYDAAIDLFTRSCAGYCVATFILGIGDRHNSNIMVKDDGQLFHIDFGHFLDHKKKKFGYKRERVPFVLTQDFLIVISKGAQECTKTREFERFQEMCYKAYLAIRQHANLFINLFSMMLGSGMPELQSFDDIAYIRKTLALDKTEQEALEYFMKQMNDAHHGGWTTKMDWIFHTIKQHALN

Macrophage metalloelastase, sequence (P39900 whole entry): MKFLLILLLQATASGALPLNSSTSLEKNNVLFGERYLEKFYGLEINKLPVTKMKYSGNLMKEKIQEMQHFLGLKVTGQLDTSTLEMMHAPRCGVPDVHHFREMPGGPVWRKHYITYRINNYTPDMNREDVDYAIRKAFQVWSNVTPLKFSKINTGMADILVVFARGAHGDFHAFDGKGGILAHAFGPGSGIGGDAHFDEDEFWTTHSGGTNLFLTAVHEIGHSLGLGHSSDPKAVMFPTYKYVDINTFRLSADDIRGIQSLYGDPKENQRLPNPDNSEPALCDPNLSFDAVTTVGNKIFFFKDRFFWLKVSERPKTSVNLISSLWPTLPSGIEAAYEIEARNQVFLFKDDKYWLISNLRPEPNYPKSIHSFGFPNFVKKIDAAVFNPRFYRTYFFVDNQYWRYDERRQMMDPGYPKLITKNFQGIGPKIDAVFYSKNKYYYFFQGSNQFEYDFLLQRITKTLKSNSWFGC
D(1A) dopamine receptor, sequence (P21728 whole entry): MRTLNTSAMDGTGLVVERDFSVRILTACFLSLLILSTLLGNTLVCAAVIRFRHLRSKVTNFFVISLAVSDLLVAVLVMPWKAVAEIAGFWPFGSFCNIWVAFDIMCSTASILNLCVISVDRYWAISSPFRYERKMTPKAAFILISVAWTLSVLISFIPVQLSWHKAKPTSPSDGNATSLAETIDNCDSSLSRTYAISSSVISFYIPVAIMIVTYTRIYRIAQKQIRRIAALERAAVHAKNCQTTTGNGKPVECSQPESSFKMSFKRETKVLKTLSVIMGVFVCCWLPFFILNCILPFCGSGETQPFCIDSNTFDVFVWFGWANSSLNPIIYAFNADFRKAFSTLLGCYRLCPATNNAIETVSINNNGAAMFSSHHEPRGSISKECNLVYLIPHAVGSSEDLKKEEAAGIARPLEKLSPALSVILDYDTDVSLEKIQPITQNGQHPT
Stromelysin-1, sequence (P08254 whole entry): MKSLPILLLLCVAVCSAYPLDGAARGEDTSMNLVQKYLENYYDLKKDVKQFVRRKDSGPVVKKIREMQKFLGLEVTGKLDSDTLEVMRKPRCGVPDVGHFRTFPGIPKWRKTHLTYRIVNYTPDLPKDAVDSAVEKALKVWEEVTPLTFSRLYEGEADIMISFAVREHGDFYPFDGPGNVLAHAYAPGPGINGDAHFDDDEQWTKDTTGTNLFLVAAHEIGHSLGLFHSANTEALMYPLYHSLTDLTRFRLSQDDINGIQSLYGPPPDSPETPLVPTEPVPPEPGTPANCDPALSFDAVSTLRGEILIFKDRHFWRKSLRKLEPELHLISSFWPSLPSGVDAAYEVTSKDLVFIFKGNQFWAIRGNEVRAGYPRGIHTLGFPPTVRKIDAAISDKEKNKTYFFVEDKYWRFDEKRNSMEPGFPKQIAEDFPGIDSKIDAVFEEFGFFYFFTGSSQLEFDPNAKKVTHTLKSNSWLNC

A word on the Ki: it is a dissociation constant, usually derived from enzyme kinetics or from competition with a known ligand. A high value points to weaker binding. As to `O=C(NCc1ncc(C(F)(F)F)cc1Cl)c1ccc2c(c1)C1(CCS(=O)(=O)CC1)[C@@H](C1CC1)N2S(=O)(=O)c1ccc(F)cc1` [BAY-786], the inhibition constant (Ki) on D(1A) dopamine receptor was > 10 µM. The % of control in [1] was found to be 41%; in assay [2], 1.9%; in assay [3], 0%; in [4] it was 0%; in assay [5], 30%.
The term IC50 denotes the concentration that gives 50% inhibition. As to `O=C(O)[C@@H]1[C@@H](Cn2nnc3ccccc3c2=O)CC[C@H]1C(=O)c1ccc(OCCC2CCOCC2)cc1` [BAY-694], the % of inhibition on D(2) dopamine receptor amounted to 30%. Moreover, the IC50 (in assay [6]; against Collagenase 3; at Interstitial collagenase; in assay [7]; in assay [8]; against Stromelysin-1) was > 10 µM in each case. For the same molecule, the IC50 (against Matrilysin; against Neutrophil collagenase; in assay [9]) was > 10 µM throughout. Also, the % of control in assay [10] stood at 43%; in assay [11], 34%.

Source of the values: ChEMBL document CHEMBL5212743, “Selectivity Literature for EUbOPEN Chemogenomics Library wave 3” (2023).
